Reference: patent publication US6972296B2, “Carboxylic acid derivatives that inhibit the binding of integrins to their receptors” (Encysive Pharmaceuticals Inc., priority 1999, dated 2005)
Blank lines part the entries; values can stand above or below the compound they belong to.

Target: T1, α4β1 integrin (Homo sapiens, UniProt P05556+P13612)
T1 construct: endogenous in cells; host or cells: Ramos cells
Experiment: Adhesion of calcein-labeled Ramos cells to CS1 (fibronectin) peptide conjugated ovalbumin
Format: cell-based
Details: Ramos cell adhesion to CS1 conjugated ovalbumin
Method: A procedure in which a 26-amino acid peptide containing the CS1 sequence of fibronectin with an N-terminal Cys ([…]) was coupled to maleimide activated ovalbumin was used to determine the efficacy of the compounds synthesized. Bovine serum albumin (BSA) and CS1 conjugated ovalbumin were coated onto 96-well polystyrene plates at 0.5 μg/ml in TBS (50 mM TRIS, pH 7.5; 150 mM NaCl) at 4° C. for 16 hours. The plates were washed three times with TBS and blocked with TBS containing 3% BSA at room temperature for 4 hours. Blocked plates were washed three times in binding buffer (TBS; 1 mM MgCl2; 1 mM CaCl2; 1 mM MnCl2) prior to assay. Ramos cells fluorescently labeled with calcein AM were resuspended in binding buffer (10^7 cells/ml) and diluted 1:2 with same buffer with or without compound. 100 μM of compound was added. The cells were added immediately to the wells (2.5×10^5 cells/well) and incubated for 30 minutes at 37° C. Following three washes with binding buffer, adherent cells were lysed and quantitated using a fluorometer. IC50 is defined as the dose required to give 50% inhibition, measured in μM for Tables 2 and 4. The lower the IC50 value and the greater the percentage of inhibition, the more efficient the compound is at prevention of cell adhesion.

[1] = Table 5, dose required to give 50% inhibition
[2] = Table 7, dose required to give 50% inhibition

T1 sequence (P13612 34-1032): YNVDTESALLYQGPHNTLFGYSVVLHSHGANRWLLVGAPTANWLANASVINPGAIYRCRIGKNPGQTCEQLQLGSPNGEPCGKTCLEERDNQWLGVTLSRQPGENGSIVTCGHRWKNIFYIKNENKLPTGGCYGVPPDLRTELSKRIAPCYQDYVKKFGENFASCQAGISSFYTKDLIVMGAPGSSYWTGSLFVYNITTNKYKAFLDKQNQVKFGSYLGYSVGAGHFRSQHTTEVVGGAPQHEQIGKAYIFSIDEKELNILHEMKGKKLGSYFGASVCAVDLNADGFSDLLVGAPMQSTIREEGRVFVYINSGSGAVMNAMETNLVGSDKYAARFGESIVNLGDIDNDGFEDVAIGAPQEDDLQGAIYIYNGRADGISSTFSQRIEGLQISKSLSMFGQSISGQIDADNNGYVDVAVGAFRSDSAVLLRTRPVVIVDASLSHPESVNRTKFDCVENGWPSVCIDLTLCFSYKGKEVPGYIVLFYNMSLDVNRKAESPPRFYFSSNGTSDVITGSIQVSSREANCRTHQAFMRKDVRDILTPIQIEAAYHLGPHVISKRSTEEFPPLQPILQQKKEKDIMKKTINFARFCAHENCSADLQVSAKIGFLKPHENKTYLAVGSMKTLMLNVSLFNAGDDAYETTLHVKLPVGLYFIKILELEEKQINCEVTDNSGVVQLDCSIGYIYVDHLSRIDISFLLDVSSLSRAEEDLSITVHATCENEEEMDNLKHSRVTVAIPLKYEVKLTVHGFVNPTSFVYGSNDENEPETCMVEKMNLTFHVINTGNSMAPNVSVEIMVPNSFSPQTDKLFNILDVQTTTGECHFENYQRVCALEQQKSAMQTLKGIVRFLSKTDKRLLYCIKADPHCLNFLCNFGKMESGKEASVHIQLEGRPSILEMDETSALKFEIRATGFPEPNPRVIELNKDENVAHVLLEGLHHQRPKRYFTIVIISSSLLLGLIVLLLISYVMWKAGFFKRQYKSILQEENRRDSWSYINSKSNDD
T1 sequence (P05556 21-798): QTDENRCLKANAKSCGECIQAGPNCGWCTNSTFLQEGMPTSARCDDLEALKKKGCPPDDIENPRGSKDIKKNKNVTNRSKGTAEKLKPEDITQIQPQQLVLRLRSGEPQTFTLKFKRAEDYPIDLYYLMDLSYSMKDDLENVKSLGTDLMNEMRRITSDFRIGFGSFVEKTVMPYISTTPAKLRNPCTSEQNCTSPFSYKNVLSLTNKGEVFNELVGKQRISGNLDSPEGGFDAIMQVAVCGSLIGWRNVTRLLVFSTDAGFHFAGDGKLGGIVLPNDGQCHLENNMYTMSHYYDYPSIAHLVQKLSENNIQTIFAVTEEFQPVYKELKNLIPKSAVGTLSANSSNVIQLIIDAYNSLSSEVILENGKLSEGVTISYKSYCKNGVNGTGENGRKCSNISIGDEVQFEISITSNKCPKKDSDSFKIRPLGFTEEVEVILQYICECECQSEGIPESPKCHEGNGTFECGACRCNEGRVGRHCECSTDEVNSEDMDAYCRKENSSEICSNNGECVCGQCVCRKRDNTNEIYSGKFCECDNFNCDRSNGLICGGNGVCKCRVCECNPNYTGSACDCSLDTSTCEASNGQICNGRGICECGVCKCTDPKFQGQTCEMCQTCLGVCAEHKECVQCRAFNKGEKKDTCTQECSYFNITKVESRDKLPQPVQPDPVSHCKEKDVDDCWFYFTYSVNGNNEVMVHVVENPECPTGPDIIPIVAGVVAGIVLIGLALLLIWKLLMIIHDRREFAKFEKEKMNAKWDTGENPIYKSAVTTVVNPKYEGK

Structure (SMILES): CCOc1cccc(Cl)c1Cn1cc(C)c(O)c(NC(=O)NC(CC(=O)O)c2ccc(S(C)(=O)=O)cc2)c1=O (stereo not shown)
- IC50 [2]: 8 nM

Structure (SMILES): Cc1ccc([C@H](CC(=O)O)NC(=O)Nc2c(O)ccn(Cc3ccc(Cl)cc3)c2=O)cc1 [(3S)-3-[({[1-(4-chlorobenzyl)-4-hydroxy-2-oxo-1,2-dihydropyridin-3-yl]amino}carbonyl)amino]-3-(4-methylphenyl)propanoic acid]
- IC50 [1]: 7 nM

Structure (SMILES): O=C(O)C[C@H](NC(=O)Nc1cccn(CC2CCCC2)c1=O)c1ccc2c(c1)OCO2 [(3S)-3-(1,3-benzodioxol-5-yl)-3-[({[1-(cyclopentylmethyl)-2-oxo-1,2-dihydro-3-pyridinyl]amino}carbonyl)amino]propanoic acid]
- IC50 (Table 4, 30 minutes at 37° C.): 6000 nM

Structure (SMILES): Cc1ccc([C@H](CC(=O)O)NC(=O)Nc2c(O)c(C)nn(Cc3ccccc3Cl)c2=O)cc1
- IC50 (Table 6, 30 minutes at 37° C.): 18 nM

Structure (SMILES): Cc1ccc([C@H](CC(=O)O)NC(=O)Nc2c(NCc3ccccn3)ccn(Cc3ccccc3Cl)c2=O)cc1
- IC50 (Table 3, 30 minutes at 37° C.): 15 nM

Structure (SMILES): Cc1cc(C)cc([C@H](CC(=O)O)NC(=O)Nc2c(O)c3c(n(Cc4ccccc4Cl)c2=O)CCC3)c1 [(3S)-3-[({[1-(2-chlorobenzyl)-4-hydroxy-2-oxo-2,5,6,7-tetrahydro-1H-cyclopenta[b]pyridin-3-yl]amino}carbonyl)amino]-3-(3,5-dimethylphenyl)propanoic acid]
- IC50 [2]: 9 nM

Structure (SMILES): Cc1cccc(Cl)c1Cn1c2c(c(O)c(NC(=O)N[C@@H](CC(=O)O)c3cccc(OC4CC4)c3)c1=O)CCC2
- IC50 [2]: 4 nM

Structure (SMILES): Cc1cccc(Cl)c1Cn1c2c(c(O)c(NC(=O)N[C@@H](CC(=O)O)c3cccc(OCC4CC4)c3)c1=O)CCC2
- IC50 [2]: 10 nM

Structure (SMILES): CCN(CC)c1cccc([C@H](CC(=O)O)NC(=O)Nc2c(O)c3c(n(Cc4c(C)cccc4Cl)c2=O)CCC3)c1
- IC50 [2]: 10 nM

Structure (SMILES): Cc1ccc([C@H](CC(=O)O)NC(=O)Nc2c(Nc3ccccn3)ccn(Cc3ccccc3Cl)c2=O)cc1
- IC50 (Table 3, 30 minutes at 37° C.): 15 nM

Structure (SMILES): Cc1ccc(Cn2ccc(O)c(NC(=O)N[C@@H](CC(=O)O)c3ccc(C)cc3)c2=O)cc1
- IC50 [1]: 25 nM

Structure (SMILES): Cc1cccc(Cl)c1Cn1c2c(c(O)c(NC(=O)N[C@@H](CC(=O)O)c3ccc4c(c3)CCC4)c1=O)CCC2
- IC50 [2]: 10 nM

Structure (SMILES): CCCOc1cccc([C@H](CC(=O)O)NC(=O)Nc2c(O)c(C)cn(Cc3c(Cl)cccc3OCC)c2=O)c1
- IC50 [2]: 3 nM

Structure (SMILES): CSc1cccc(Cn2ccc(O)c(NC(=O)N[C@@H](CC(=O)O)c3ccc(C)cc3)c2=O)c1
- IC50 (Table 6, 30 minutes at 37° C.): 20 nM

Structure (SMILES): CCCc1ccc([C@H](CC(=O)O)NC(=O)Nc2c(O)c3c(n(Cc4c(C)cccc4Cl)c2=O)CCC3)cc1
- IC50 [2]: 20 nM

Structure (SMILES): COc1ccccc1Cn1cccc(NC(=O)N[C@@H](CC(=O)O)c2ccc3c(c2)OCO3)c1=O
- IC50 (Table 4, 30 minutes at 37° C.): 500 nM

Structure (SMILES): CCOc1ccc(Cl)c(Cl)c1Cn1c2c(c(O)c(NC(=O)N[C@@H](CC(=O)O)c3cccc(OC(C)C)c3)c1=O)CCC2
- IC50 [2]: 5 nM

Structure (SMILES): Cc1ccc([C@H](CC(=O)O)NC(=O)Nc2c(O)c(C)cn(Cc3c(C)cccc3Cl)c2=O)cc1C
- IC50 (Table 6, 30 minutes at 37° C.): 45 nM

Structure (SMILES): COc1cccc(Cn2cccc(NC(=O)N[C@@H](CC(=O)O)c3ccc(C)cc3)c2=O)c1
- IC50 (Table 4, 30 minutes at 37° C.): 200 nM

Structure (SMILES): Cc1cn(Cc2c(C)cccc2Cl)c(=O)c(NC(=O)N[C@@H](CC(=O)O)c2ccc3c(ccn3C)c2)c1O
- IC50 [2]: 4 nM

Structure (SMILES): CCOc1ccc(Cl)c(Cn2cc(C)c(O)c(NC(=O)N[C@@H](CC(=O)O)c3ccc(C)cc3)c2=O)c1
- IC50 [2]: 4 nM

Structure (SMILES): O=C(O)C[C@H](NC(=O)NC1CCCCN(Cc2ccccc2)C1=O)c1ccc2c(c1)OCO2 (stereo partly shown)
- IC50 (Table 4, 30 minutes at 37° C.): 15 nM

Structure (SMILES): Cc1ccc([C@H](CC(=O)O)NC(=O)Nc2cccn(Cc3ccc(C(C)(C)C)cc3)c2=O)cc1
- IC50 (Table 4, 30 minutes at 37° C.): 6000 nM

Structure (SMILES): CCOc1cccc([C@H](CC(=O)O)NC(=O)Nc2c(O)c(CC)c(C)n(Cc3c(Cl)cccc3OCC)c2=O)c1
- IC50 [2]: 4 nM

Structure (SMILES): CCCCc1cn(Cc2ccccc2Cl)c(=O)c(NC(=O)N[C@@H](CC(=O)O)c2ccc(C)cc2)c1O
- IC50 [1]: 25 nM

Structure (SMILES): Cc1ccc([C@H](CC(=O)O)NC(=O)Nc2cccn(Cc3cc(NS(C)(=O)=O)ccc3Br)c2=O)cc1
- IC50 (Table 4, 30 minutes at 37° C.): 250 nM

Structure (SMILES): Cc1ccc([C@H](CC(=O)O)NC(=O)Nc2cn(Cc3ccccc3Cl)ccc2=O)cc1
- IC50 (Table 4, 30 minutes at 37° C.): 100 nM

Structure (SMILES): O=C(O)C[C@H](NC(=O)Nc1cccc(NCc2cccs2)c1)c1ccc2c(c1)OCO2
- IC50 (Table 4, 30 minutes at 37° C.): 5000 nM

Structure (SMILES): COc1ccc(C(C)=O)cc1Cn1ccc(O)c(NC(=O)N[C@@H](CC(=O)O)c2ccc(C)cc2)c1=O
- IC50 (Table 6, 30 minutes at 37° C.): 33 nM

Structure (SMILES): Cc1ccc([C@H](CC(=O)O)NC(=O)Nc2c(C)ccn(Cc3ccccc3Br)c2=O)cc1 [(3S)-3-{[({1-[(2-bromophenyl)methyl]-4-methyl-2-oxo-1,2-dihydro-3-pyridinyl}amino)carbonyl]amino}-3-(4-methylphenyl)propanoic acid]
- IC50 (Table 3, 30 minutes at 37° C.): 10 nM

Structure (SMILES): COc1cccc(Cl)c1Cn1cccc(NC(=O)N[C@@H](CC(=O)O)c2ccc(C)cc2)c1=O [(3S)-3-[({[1-(2-chloro-6-methoxybenzyl)-2-oxo-1,2-dihydropyridin-3-yl]amino}carbonyl)amino]-3-(4-methylphenyl)propanoic acid]
- IC50 [1]: 100 nM

Structure (SMILES): Cc1ccc([C@H](CC(=O)O)NC(=O)Nc2c(O)c(C)cn(Cc3cc(OC(C)C)ccc3Cl)c2=O)cc1
- IC50 (Table 6, 30 minutes at 37° C.): 7 nM

Structure (SMILES): Cc1ccc([C@H](CC(=O)O)NC(=O)Nc2cccn(Cc3cc(C)ccc3C)c2=O)cc1
- IC50 (Table 4, 30 minutes at 37° C.): 150 nM

Structure (SMILES): COc1cc([C@H](CC(=O)O)NC(=O)Nc2cccn(Cc3ccccc3Cl)c2=O)cc(OC)c1OC
- IC50 (Table 4, 30 minutes at 37° C.): 40 nM

Structure (SMILES): CCn1c2ccccc2c2cc([C@H](CC(=O)O)NC(=O)Nc3c(O)c(C)cn(Cc4ccccc4Cl)c3=O)ccc21
- IC50 [2]: 23 nM

Structure (SMILES): CCOc1cccc(Cl)c1Cn1c(C)cc(O)c(NC(=O)N[C@@H](CC(=O)O)c2cccc(OC(C)C)c2)c1=O [(3S)-3-[({[1-(2-chloro-6-ethoxybenzyl)-4-hydroxy-6-methyl-2-oxo-1,2-dihydropyridin-3-yl]amino}carbonyl)amino]-3-(3-isopropoxyphenyl)propanoic acid]
- IC50 [2]: 3 nM

Structure (SMILES): Cc1ccc([C@H](CC(=O)O)NC(=O)Nc2cccn(Cc3ccccc3-c3ccccc3)c2=O)cc1
- IC50 (Table 4, 30 minutes at 37° C.): 2500 nM

Continued, values first:

- IC50 [1]: 5 nM
Structure (SMILES): COc1cc([C@H](CC(=O)O)NC(=O)Nc2c(O)ccn(Cc3ccccc3Cl)c2=O)cc2c1OCO2 [(3S)-3-[({[1-(2-chlorobenzyl)-4-hydroxy-2-oxo-1,2-dihydropyridin-3-yl]amino}carbonyl)amino]-3-(7-methoxy-1,3-benzodioxol-5-yl)propanoic acid]

- IC50 [2]: 30 nM
Structure (SMILES): CCc1ccc([C@H](CC(=O)O)NC(=O)Nc2c(O)c(C)cn(Cc3ccccc3Cl)c2=O)cc1

- IC50 (Table 3, 30 minutes at 37° C.): 15 nM
Structure (SMILES): Cc1ccc([C@H](CC(=O)O)NC(=O)Nc2c(F)ccn(Cc3ccccc3Cl)c2=O)cc1

- IC50 [1]: 150 nM
Structure (SMILES): Cc1ccc(C[C@H](CC(=O)O)NC(=O)Nc2c(O)ccn(Cc3ccccc3Cl)c2=O)cc1

- IC50 (Table 3, 30 minutes at 37° C.): 400 nM
Structure (SMILES): CC(C)(C)c1ccc([C@H](CC(=O)O)NC(=O)Nc2c(O)ccn(Cc3ccccc3Cl)c2=O)cc1

- IC50 [1]: 20 nM
Structure (SMILES): O=C(O)C[C@H](NC(=O)Nc1c(O)ccn(Cc2ccccc2Cl)c1=O)c1cccc(OC(F)(F)F)c1

- IC50 (Table 6, 30 minutes at 37° C.): 7 nM
Structure (SMILES): CCOc1cc(OCC)cc([C@H](CC(=O)O)NC(=O)Nc2c(O)ccn(Cc3ccccc3Cl)c2=O)c1

- IC50 (Table 6, 30 minutes at 37° C.): 15 nM
Structure (SMILES): COc1ccc2cc([C@H](CC(=O)O)NC(=O)Nc3c(O)ccn(Cc4ccccc4Cl)c3=O)ccc2c1

- IC50 [1]: 30 nM
Structure (SMILES): Cc1cn(Cc2ccccc2Cl)c(=O)c(NC(=O)NC(CC(=O)O)c2ccc3ccccc3c2)c1O (stereo not shown)

- IC50 [1]: 14 nM
Structure (SMILES): Cc1ccc([C@H](CC(=O)O)NC(=O)Nc2c(O)ccn(Cc3cc(F)ccc3Cl)c2=O)cc1

- IC50 [1]: 0.8 nM
Structure (SMILES): CCOc1ccc([C@H](CC(=O)O)NC(=O)Nc2c(O)ccn(Cc3ccccc3Cl)c2=O)cc1OCC [(3S)-3-[({[1-(2-chlorobenzyl)-4-hydroxy-2-oxo-1,2-dihydropyridin-3-yl]amino}carbonyl)amino]-3-(3,4-diethoxyphenyl)propanoic acid]

- IC50 [2]: 9 nM
Structure (SMILES): Cc1cn(Cc2ccccc2Cl)c(=O)c(NC(=O)N[C@@H](CC(=O)O)c2cccc(O)c2)c1O

- IC50 (Table 3, 30 minutes at 37° C.): 70 nM
Structure (SMILES): Cc1ccc([C@H](CC(=O)O)NC(=O)Nc2cc(C)cn(Cc3ccccc3Cl)c2=O)cc1 [(3S)-3-{[({1-[(2-chlorophenyl)methyl]-5-methyl-2-oxo-1,2-dihydro-3-pyridinyl}amino)carbonyl]amino}-3-(4-methylphenyl)propanoic acid]

- IC50 (Table 6, 30 minutes at 37° C.): 115 nM
Structure (SMILES): O=C(O)C[C@@H](CCc1ccccc1)NC(=O)Nc1c(O)ccn(Cc2ccccc2Cl)c1=O

- IC50 [1]: 15 nM
Structure (SMILES): CSc1ccc(Cl)c(Cn2ccc(O)c(NC(=O)N[C@@H](CC(=O)O)c3ccc(C)cc3)c2=O)c1

- IC50 [2]: 17 nM
Structure (SMILES): O=C(O)C[C@H](NC(=O)Nc1c(O)c2c(n(Cc3ccccc3Cl)c1=O)CCC2)c1cccc(OC2CCC2)c1

- IC50 [2]: 4 nM
Structure (SMILES): Cc1cn(Cc2ccccc2Cl)c(=O)c(NC(=O)N[C@@H](CC(=O)O)c2ccc3ccn(C)c3c2)c1O

- IC50 (Table 4, 30 minutes at 37° C.): 2500 nM
Structure (SMILES): O=C(O)C[C@H](NC(=O)Nc1cccn(Cc2cccs2)c1=O)c1cccc(C(F)(F)F)c1

- IC50 [2]: 4 nM
Structure (SMILES): CCOc1cccc([C@H](CC(=O)O)NC(=O)Nc2c(O)c(C)cn(Cc3c(Cl)cccc3OCC(F)(F)F)c2=O)c1

- IC50 [1]: 12000 nM
Structure (SMILES): O=C(O)C[C@H](NC(=O)Nc1c(O)ccn(Cc2ccccc2Cl)c1=O)C(c1ccccc1)c1ccccc1

- IC50 [1]: 60 nM
Structure (SMILES): Cc1ccc([C@H](CC(=O)O)NC(=O)Nc2c(O)ccn(Cc3ccc(Cl)cc3Cl)c2=O)cc1
